Data: patent publication US9925235B2, “Tilapia piscidins for use in enhancement of wound healing” (Academia Sinica, priority 2015, dated 2018)

Experiments:
[1] = system: Keratin 10, keratin 17 gene expression in HaCaT cells; experiment: Real-time PCR of keratin 10 and keratin 17 in HaCaT cells; format: cell-based, human; settings: TP4 6.25 μg/ml, 48 h
Description: In FIG. 6A-6C, HaCaT cells were treated with different doses of TP4 for 48 h, and cell viability was measured by neutral red, LDH, and MTT assays (r=3; n=6). In FIGS. 6D and 6E, thee experimental HaCaT cells were treated with TP4 (6.25 μg/ml), while control cells were untreated. After 48 h, total RNA was isolated and reverse transcribed for use in real-time qPCR analysis. Six replicate wells were analyzed per assay. Results represent the mean±SEM from three independent experiments. (Student's t-test: *, P<0.05; **, P<0.01, n.s.: not significant).
Total RNA was isolated from HaCaT and Hs-68 cells, and purified using a Qiagen RNeasy kit. Reverse transcription into cDNA was performed with an iScript cDNA Synthesis Kit (BIO-RAD, USA) according to the manufacturer's recommendations. […] Quantitative PCR was performed under the following conditions: 40 cycles of 1 min at 95° C., 30 s at 55° C., and 1 min at 72° C. The threshold cycle number (Ct) was calculated with BIO-RAD software. Relative transcript quantities were calculated using the ΔCt method with GAPDH as the internal reference gene. ΔCt is the difference in the threshold cycles of messenger (m)RNA for selected genes relative to those of GAPDH mRNA. […]

MRSA [2] = experiment: Mouse model of MRSA sepsis, TP4; format: in vivo, Balb/c mice
Description: Female Balb/c mice (6-8 weeks old) were injected intraperitoneally with 10^6 CFU MRSA per mouse. Ten minutes after MRSA injection, mice were injected intraperitoneally with vancomycin (0.01 mg/g mouse body weight), methicillin (0.01 mg/g mouse body weight), or TP4 (0.005 mg/g mouse body weight). In a second set of experiments, mice were given intraperitoneal injections of TP4 (0.005 mg/g mouse body weight) at 10, 60, 120, or 180 min after MRSA injection. Survival rate and status were recorded every 24 h for up to 192 h. To examine bacterial dissemination, mice were sacrificed at 48 h after injection with antibiotics or TP4, and the bacterial numbers in blood, peritoneum, spleen, liver, and mesenteric lymph nodes were recorded. Colony counts from the diluted bacterial solutions were expressed relative to those at the start of treatment. These experiments consisted of four groups, and each group contained 10 mice.
Infected mice were untreated, or treated with TP4, methicillin, or vancomycin via i.p. injection. Bacterial numbers in blood, peritoneum, spleen, liver, and mesenteric lymph nodes were subsequently recorded. Colony counts from the diluted bacterial solutions are expressed relative to those at the start of treatment. Each value represents the mean value from three determinations±standard deviation (SD).

MRSA [3] = experiment: Mouse wound healing model, wound closure, TP4; format: in vivo, Balb/c mice; settings: MRSA-contaminated full-thickness wounds
Description: Female Balb/c mice (6-8 weeks old) were used for wound healing experiments. All mice were housed individually to prevent fighting and further damage to the wounds, and they were provided with food and water ad libitum. Mice were maintained on a 12 h light: dark cycle at room temperature, and acclimatized to the environment for at least a week before use in experiments. All researchers wore caps, sterile gloves, gowns, and shoe covers when handling mice. Hair was removed from the back of the mice by shaving, and a full thickness wound (1 cm in diameter) was then created in the exposed region. Each wound was inoculated with 50 μl of broth mix containing 10^6 cfu (colony forming units) of S. aureus. At 5 min after inoculation, 50 μl TP4 (2 mg/ml) in a total volume of 0.1 ml were applied. […] Animals were subsequently euthanized by CO2 inhalation and the wounds assessed. […] Each wound was measured and then removed from the animal, with unwounded skin taken from the contralateral dorsum as a control. Each biopsy was divided into six sections, with three sections being used for tensiometry and histology, and three sections for quantitative determination of microbial load. […]
Tracings were taken immediately after injury. For uncontaminated wounds, wound size was determined every second day. […] Wound areas were determined using the Macintosh Adobe Photoshop program, Histogram Analysis. […]

[4] = 48 hours after the last treatment

## Tilapia piscidin 4 (FIHHIIGGLFSAGKAIHRLIRRRRR; listed as Oreochromis niloticus) [TP4]
[1]
  gene expression of keratin 10: significantly increased
  gene expression of keratin 17: did not affect
MRSA [2]; [4]
  Mean ± SD count, Blood: 0^A CFU/mL
  Mean ± SD count, Liver: 2.4 × 10^4 ± 1 × 10^6A CFU/mL
  Mean ± SD count, Mesenteric lymph nodes: 6 × 10^5 ± 1 × 10^5A CFU/mL
  Mean ± SD count, Peritoneum: 1 × 10^6 ± 1 × 10^4A CFU/mL
  Mean ± SD count, Spleen: 3 × 10^6 ± 1.2 × 10^6A CFU/mL
MRSA [2]; 8 days after MRSA infection, i.p. 10 min after MRSA, TP4 0.005 mg/g, vancomycin and methicillin 0.01 mg/g
  survival rate: 100%
MRSA [2]; P<0.05
  bacterial burden in organs vs untreated controls: significantly reduced the bacterial burden in all examined organs
MRSA [2]; TP4 0.005 mg/g injected 10 min after MRSA
  survival rate: 100%
MRSA [2]; TP4 0.005 mg/g injected 60 min after MRSA
  survival rate: 80%
MRSA [2]; TP4 0.005 mg/g injected 120 min after MRSA
  survival rate: 60%
MRSA [2]; TP4 0.005 mg/g injected 180 min after MRSA
  survival rate: 50%
MRSA [2]; monitored for 2 day after injection, MRSA 10^6 CFU i.p.
  % lethality: 0^A %
MRSA [3]
  day of wound closure: 21 days
  wound closure: wound closure was accelerated
